These compounds were tested against T1, Prostaglandin E2 receptor EP1 subtype (Homo sapiens, UniProt P34995) (assay: Displacement of [3H]PGE2 from human recombinant EP1 receptor expressed in CHO cells).
T1 sequence (P34995 whole entry): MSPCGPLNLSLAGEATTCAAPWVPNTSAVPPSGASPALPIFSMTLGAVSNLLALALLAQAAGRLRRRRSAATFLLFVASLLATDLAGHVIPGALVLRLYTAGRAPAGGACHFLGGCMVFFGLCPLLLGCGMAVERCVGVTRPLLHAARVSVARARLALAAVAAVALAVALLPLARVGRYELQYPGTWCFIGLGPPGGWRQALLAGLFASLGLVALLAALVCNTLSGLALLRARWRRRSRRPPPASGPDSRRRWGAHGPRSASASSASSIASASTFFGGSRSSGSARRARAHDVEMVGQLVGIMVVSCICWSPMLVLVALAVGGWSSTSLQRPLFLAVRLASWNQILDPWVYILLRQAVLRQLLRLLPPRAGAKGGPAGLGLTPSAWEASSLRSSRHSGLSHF
Type: cell-based

Structure (SMILES)	IC50
Cc1ccc(-c2ccccc2OCc2ccccc2)n1-c1cccc(S(C)(=O)=O)c1	> 1000 nM
Cc1ccc(-c2cc(Cl)ccc2OCc2ccccc2)n1-c1cccc(S(C)(=O)=O)c1	126 nM
Cc1ccc(-c2cc(Br)ccc2OCc2ccccc2)n1-c1cccc(S(C)(=O)=O)c1	200 nM
Cc1ccc(-c2cc(Cl)ccc2OCc2ccccc2)n1-c1cccc(C(=O)NCc2cccnc2)c1	63.1 nM
Cc1ccc(-c2cc(Cl)ccc2OCc2ccccc2)n1-c1cccc(C(=O)NCc2ccncc2)c1	63.1 nM
Cc1ccc(-c2cc(Br)ccc2OCc2ccc(F)cc2F)n1-c1cccc(-c2nc3ccccc3[nH]2)c1	63.1 nM
Cc1nc(-c2cccc(-n3c(C)ccc3-c3cc(Br)ccc3OCc3ccc(F)cc3F)c2)no1	200 nM
CC(=O)Nc1cccc(-n2c(C)ccc2-c2cc(Cl)ccc2OCc2ccccc2)c1	63.1 nM
Cc1ccc(-c2cc(Br)ccc2OCc2ccc(F)cc2F)n1-c1ccc2c(c1)C(=O)NC2=O	158 nM
Cc1ccc(-c2ccccc2OCc2ccc(F)cc2F)n1-c1ccc2nn[nH]c2c1	631 nM
Cc1ccc(-c2cc(Br)ccc2OCc2ccc(F)cc2F)n1-c1cccc(-c2cccnc2)c1	126 nM
Cc1ccc(-c2cc(Br)ccc2OCc2ccc(F)cc2F)n1-c1cccc(-c2ccccn2)c1	251 nM
Cc1ccc(-c2cc(Cl)ccc2OCc2ccccc2)n1-c1cccc(C(=O)N[C@@H](C)c2ccccc2)c1	316 nM
Cc1ccc(-c2cc(Cl)ccc2OCc2ccccc2)n1-c1ccc(-n2cncn2)cc1	501 nM
Cc1ccc(-c2cc(Br)ccc2OCc2ccc(F)cc2F)n1-c1cccc(C(=O)Nc2ccccc2)c1	501 nM
Cc1ccc(-c2ccccc2OCc2ccc(F)cc2F)n1-c1cccc(C(N)=O)c1	501 nM
Cc1ccc(-c2cc(Cl)ccc2OCc2ccccc2)n1-c1cccc(C(N)=O)c1	63.1 nM
Cc1ccc(-c2cc(Br)ccc2OCc2ccc(F)cc2F)n1-c1cccc(-c2ncccn2)c1	126 nM
Cc1ccc(-c2cc(Cl)ccc2OCc2ccccc2)n1-c1cccc(S(=O)(=O)NC(=O)c2ccccc2)c1	79.4 nM
Cc1cc(=O)[nH]c2cc(-n3c(C)ccc3-c3cc(Cl)ccc3OCc3ccccc3)ccc12	63.1 nM
Cc1ccc(-c2ccccc2OCc2ccccc2)n1-c1ccc(S(C)(=O)=O)cc1	501 nM

Further compounds by falling IC50, results first:

IC50	Structure (SMILES)
63.1 nM	Cc1ccc(-c2cc(Cl)ccc2OCc2ccccc2)n1-c1ccc(C(=O)NCc2ccncc2)cc1
50.1 nM	CCN(CC)C(=O)c1ccc(-n2c(C)ccc2-c2cc(Br)ccc2OCc2ccc(F)cc2F)cc1
50.1 nM	Cc1ccc(-c2cc(Cl)ccc2OCc2ccccc2)n1-c1cccc(C(=O)NCc2ccccn2)c1
39.8 nM	Cc1nnc(-c2cccc(-n3c(C)ccc3-c3cc(Br)ccc3OCc3ccc(F)cc3F)c2)o1
39.8 nM	Cc1ccc(-c2cc(Br)ccc2OCc2ccc(F)cc2F)n1-c1ccc(-c2cnc[nH]2)cc1
39.8 nM	Cc1ccc(-c2cc(Cl)ccc2OCc2ccccc2)n1-c1ccc2cn[nH]c2c1
39.8 nM	Cc1ccc(-c2cc(Cl)ccc2OCc2ccccc2)n1-c1cccc(C(=O)N[C@H](C)c2ccccc2)c1
39.8 nM	Cc1ccc(-c2cc(Cl)ccc2OCc2ccccc2)n1-c1ccc2[nH]ncc2c1
31.6 nM	Cc1ccc(-c2cc(Br)ccc2OCc2ccccc2)n1-c1ccc(S(C)(=O)=O)cc1
25.1 nM	Cc1ccc(-c2cc(Br)ccc2OCc2ccc(F)cc2F)n1-c1cccc(C(O)(C(F)(F)F)C(F)(F)F)c1
25.1 nM	Cc1ccc(-c2cc(Cl)ccc2OCc2ccccc2)n1-c1cccc(C(=O)NCc2ccccc2)c1
25.1 nM	Cc1ccc(-c2cc(Cl)ccc2OCc2ccccc2)n1-c1ccc2nn[nH]c2c1
25.1 nM	Cc1ccc(-c2cc(Cl)ccc2OCc2ccccc2)n1-c1ccc(C(=O)NCc2ccccc2)cc1
20 nM	CNC(=O)c1cccc(-n2c(C)ccc2-c2cc(Br)ccc2OCc2ccc(F)cc2F)c1
20 nM	Cc1ccc(-c2cc(Cl)ccc2OCc2ccccc2)n1-c1ccc(S(C)(=O)=O)cc1
20 nM	Cc1ccc(-c2cc(Cl)ccc2OCc2ccccc2)n1-c1ccc(S(N)(=O)=O)cc1
15.8 nM	Cc1ccc(-c2cc(Br)ccc2OCc2ccc(F)cc2F)n1-c1ccc(C(=O)N(C)C)cc1
15.8 nM	Cc1ccc(-c2cc(Br)ccc2OCc2ccc(F)cc2F)n1-c1ccc(C(=O)NC(C)(C)C)cc1
12.6 nM	Cc1ccc(-c2cc(Cl)ccc2OCc2ccccc2)n1-c1ccc(C(=O)NCc2cccnc2)cc1
10 nM	Cc1ccc(-c2cc(Br)ccc2OCc2ccc(F)cc2F)n1-c1cccc(C(=O)N(C)C)c1
7.94 nM	Cc1ccc(-c2cc(Cl)ccc2OCc2ccccc2)n1-c1ccc(S(=O)(=O)NC(=O)c2ccccc2)cc1
7.94 nM	Cc1ccc(-c2cc(Br)ccc2OCc2ccc(F)cc2F)n1-c1ccc(C(N)=O)cc1
5.01 nM	Cc1ccc(-c2cc(Cl)ccc2OCc2ccccc2)n1-c1ccc(C(=O)N[C@@H](C)c2ccccc2)cc1
5.01 nM	Cc1noc(C)c1S(=O)(=O)NC(=O)c1cccc(-n2c(C)ccc2-c2ccccc2OCc2ccccc2)c1
3.98 nM	CNC(=O)c1ccc(-n2c(C)ccc2-c2cc(Br)ccc2OCc2ccc(F)cc2F)cc1
3.98 nM	Cc1ccc(-c2cc(Br)ccc2OCc2ccc(F)cc2F)n1-c1cccc(C(=O)NS(C)(=O)=O)c1
2.51 nM	Cc1ccc(-c2cc(Cl)ccc2OCc2ccccc2)n1-c1ccc(C(=O)NCc2ccccn2)cc1
2.51 nM	Cc1ccc(-c2cc(Cl)ccc2OCc2ccccc2)n1-c1cccc(C(=O)NS(=O)(=O)c2ccccc2)c1
2.51 nM	Cc1ccc(-c2ccccc2OCc2ccccc2)n1-c1cccc(C(=O)NS(=O)(=O)c2ccccc2)c1
1.58 nM	Cc1ccc(-c2cc(Cl)ccc2OCc2ccccc2)n1-c1ccc(C(=O)N[C@H](C)c2ccccc2)cc1
